Assay results from ChEMBL document CHEMBL3396988, “Structure-based design of inhibitors of coagulation factor XIa with novel P1 moieties” (Bioorg Med Chem Lett, 2015).

Legend:
[1] = target: Tissue-type plasminogen activator (Homo sapiens, UniProt P00750); assay: Inhibition of TPA (unknown origin)
[2] = Oral bioavailability in dog at 1 mg/kg administered in discrete format; assay type: ADME, organism-based, Canis lupus familiaris; conditions: in vivo
Plasminogen = Plasminogen (Homo sapiens, UniProt P00747); assay: Inhibition of plasmin (unknown origin)
[3] = Volume of distribution at steady state in dog at 1 mg/kg, po or 0.4 mg/kg, iv administered in discrete format; assay type: ADME, organism-based, Canis lupus familiaris; conditions: in vivo, read-out: Vdss
[4] = Clearance in dog at 1 mg/kg, po or 0.4 mg/kg, iv administered in discrete format; assay type: ADME, organism-based, Canis lupus familiaris; conditions: in vivo
Coagulation factor XI [5] = target: T1, Coagulation factor XI (Homo sapiens, UniProt P03951); assay: Inhibition of human coagulation factor 11a at 25 degC
[6] = Permeability of the compound at pH 7.4 by PAMPA method; assay type: ADME; conditions: read-out: permeability
Kallikrein-1 = Kallikrein-1 (Homo sapiens, UniProt P06870); assay: Inhibition of tissue kallikrein (unknown origin)
[7] = Half life in dog at 1 mg/kg, po or 0.4 mg/kg, iv administered in discrete format; assay type: ADME, organism-based, Canis lupus familiaris; conditions: in vivo
[8] = Inhibition of chymotrypsin (unknown origin); set-up: species or system Homo sapiens
Trypsin = Trypsin (Homo sapiens, UniProt P07477+P07478+P35030); assay: Inhibition of human trypsin at 25 degC; assay type: protein assay
[9] = Oral bioavailability in dog at 0.5 mg/kg administered in cassette format; assay type: ADME, organism-based, Canis lupus familiaris; conditions: in vivo
[10] = Half life in dog at 0.5 mg/kg, po or 0.4 mg/kg, iv administered in cassette format; assay type: ADME, organism-based, Canis lupus familiaris; conditions: in vivo
[11] = Volume of distribution at steady state in dog at 0.5 mg/kg, po or 0.4 mg/kg, iv administered in cassette format; assay type: ADME, organism-based, Canis lupus familiaris; conditions: in vivo, read-out: Vdss
[12] = Clearance in dog at 0.5 mg/kg, po or 0.4 mg/kg, iv administered in cassette format; assay type: ADME, organism-based, Canis lupus familiaris; conditions: in vivo
Plasma = assay: Anticoagulant activity in human plasma assessed as compound level causing 1.5 times increase in activated partial […] time; assay type: functional
[13] = Half life in human liver microsomes; assay type: ADME
Coagulation factor X = Coagulation factor X (Homo sapiens, UniProt P00742); assay: Inhibition of coagulation factor 10a (unknown origin)
Coagulation factor VII = target: T2, Coagulation factor VII (Homo sapiens, UniProt P08709); assay: Inhibition of coagulation factor 7a (unknown origin)
T2 sequence (P08709 whole entry): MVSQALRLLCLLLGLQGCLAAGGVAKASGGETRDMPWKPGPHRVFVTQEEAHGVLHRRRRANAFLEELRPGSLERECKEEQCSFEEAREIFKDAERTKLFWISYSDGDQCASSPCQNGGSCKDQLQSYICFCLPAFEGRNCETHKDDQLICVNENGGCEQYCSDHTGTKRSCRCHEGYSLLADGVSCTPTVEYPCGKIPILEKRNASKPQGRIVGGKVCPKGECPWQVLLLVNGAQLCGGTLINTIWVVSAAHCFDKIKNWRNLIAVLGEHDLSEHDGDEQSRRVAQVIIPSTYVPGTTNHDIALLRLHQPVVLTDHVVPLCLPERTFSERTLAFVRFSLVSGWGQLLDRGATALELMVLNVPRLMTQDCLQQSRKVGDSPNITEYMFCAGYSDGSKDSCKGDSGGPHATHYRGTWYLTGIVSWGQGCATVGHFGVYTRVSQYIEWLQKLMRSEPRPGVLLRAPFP

Prothrombin = Prothrombin (Homo sapiens, UniProt P00734); assay: Inhibition of thrombin (unknown origin)
Coagulation factor IX = Coagulation factor IX (Homo sapiens, UniProt P00740); assay: Inhibition of coagulation factor 9a (unknown origin)
Plasma kallikrein = Plasma kallikrein (Homo sapiens, UniProt P03952); assay: Inhibition of plasma kallikrein (unknown origin)
Coagulation factor XI [14] = target: T1, Coagulation factor XI; assay: Inhibition of human coagulation factor 11a at 37 degC

Kallikrein-1, sequence (P06870 whole entry): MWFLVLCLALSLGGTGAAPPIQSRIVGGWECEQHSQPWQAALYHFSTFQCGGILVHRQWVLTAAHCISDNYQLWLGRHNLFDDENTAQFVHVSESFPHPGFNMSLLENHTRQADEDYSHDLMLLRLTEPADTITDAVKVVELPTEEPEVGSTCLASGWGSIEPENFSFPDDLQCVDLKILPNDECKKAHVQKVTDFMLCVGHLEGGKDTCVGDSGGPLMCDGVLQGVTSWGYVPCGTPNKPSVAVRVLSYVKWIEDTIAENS
Tissue-type plasminogen activator, sequence (P00750 whole entry): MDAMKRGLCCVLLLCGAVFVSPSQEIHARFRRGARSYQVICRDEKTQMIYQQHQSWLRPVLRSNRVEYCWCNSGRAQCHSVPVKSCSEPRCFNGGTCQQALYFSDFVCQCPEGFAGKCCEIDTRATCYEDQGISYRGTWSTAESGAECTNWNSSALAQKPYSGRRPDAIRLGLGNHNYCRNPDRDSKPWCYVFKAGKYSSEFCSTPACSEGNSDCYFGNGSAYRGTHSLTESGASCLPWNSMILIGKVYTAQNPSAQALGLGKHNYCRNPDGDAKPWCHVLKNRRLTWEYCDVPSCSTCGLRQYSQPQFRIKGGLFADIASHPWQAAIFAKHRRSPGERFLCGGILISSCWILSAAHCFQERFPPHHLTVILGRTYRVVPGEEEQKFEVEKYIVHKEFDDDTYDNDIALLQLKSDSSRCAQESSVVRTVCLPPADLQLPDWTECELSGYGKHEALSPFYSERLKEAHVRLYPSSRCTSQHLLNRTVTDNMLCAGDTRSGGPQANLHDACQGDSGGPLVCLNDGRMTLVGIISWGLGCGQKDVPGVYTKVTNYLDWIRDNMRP
T1 sequence (P03951 19-387 limits assumed): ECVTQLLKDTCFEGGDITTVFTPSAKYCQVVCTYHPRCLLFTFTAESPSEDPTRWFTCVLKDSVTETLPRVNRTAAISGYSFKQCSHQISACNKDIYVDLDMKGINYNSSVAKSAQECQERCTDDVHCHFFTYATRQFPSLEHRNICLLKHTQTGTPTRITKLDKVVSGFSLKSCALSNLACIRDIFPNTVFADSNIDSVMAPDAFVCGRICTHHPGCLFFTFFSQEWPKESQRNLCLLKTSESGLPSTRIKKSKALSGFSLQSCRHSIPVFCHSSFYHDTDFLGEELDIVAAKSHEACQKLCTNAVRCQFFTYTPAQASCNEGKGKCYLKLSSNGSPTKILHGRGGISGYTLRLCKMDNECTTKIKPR
T1 sequence (P03951 388-625 limits assumed): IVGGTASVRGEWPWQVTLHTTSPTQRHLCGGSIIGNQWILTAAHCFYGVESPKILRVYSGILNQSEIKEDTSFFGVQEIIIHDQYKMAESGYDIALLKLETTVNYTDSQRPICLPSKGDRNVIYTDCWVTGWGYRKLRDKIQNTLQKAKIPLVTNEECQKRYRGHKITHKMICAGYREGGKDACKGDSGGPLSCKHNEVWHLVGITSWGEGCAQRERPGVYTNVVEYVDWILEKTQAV
Plasminogen, sequence (P00747 97-580 limits assumed): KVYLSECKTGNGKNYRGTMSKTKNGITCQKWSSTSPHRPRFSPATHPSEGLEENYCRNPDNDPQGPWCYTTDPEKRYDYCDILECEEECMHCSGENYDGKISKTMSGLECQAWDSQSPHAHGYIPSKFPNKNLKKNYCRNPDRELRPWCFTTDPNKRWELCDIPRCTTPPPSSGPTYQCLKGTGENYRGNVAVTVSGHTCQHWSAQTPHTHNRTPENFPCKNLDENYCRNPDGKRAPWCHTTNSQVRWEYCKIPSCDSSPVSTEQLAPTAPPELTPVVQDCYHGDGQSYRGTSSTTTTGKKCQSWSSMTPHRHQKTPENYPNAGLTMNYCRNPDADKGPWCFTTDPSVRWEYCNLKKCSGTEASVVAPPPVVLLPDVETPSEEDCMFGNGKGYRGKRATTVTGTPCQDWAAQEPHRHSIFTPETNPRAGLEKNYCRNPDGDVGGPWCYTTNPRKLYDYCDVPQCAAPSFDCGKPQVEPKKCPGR
Plasminogen, sequence (P00747 581-810 limits assumed): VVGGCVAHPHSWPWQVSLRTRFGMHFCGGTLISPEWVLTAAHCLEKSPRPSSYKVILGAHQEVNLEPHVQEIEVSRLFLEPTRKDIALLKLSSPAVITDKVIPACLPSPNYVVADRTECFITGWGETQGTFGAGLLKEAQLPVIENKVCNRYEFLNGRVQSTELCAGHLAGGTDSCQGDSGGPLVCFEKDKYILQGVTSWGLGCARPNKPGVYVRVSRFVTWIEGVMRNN
Coagulation factor X, sequence (P00742 41-179 limits assumed): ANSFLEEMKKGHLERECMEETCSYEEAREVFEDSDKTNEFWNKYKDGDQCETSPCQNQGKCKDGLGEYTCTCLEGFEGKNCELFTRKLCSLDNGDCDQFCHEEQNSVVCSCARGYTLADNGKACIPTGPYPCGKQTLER
Coagulation factor X, sequence (P00742 235-488 limits assumed): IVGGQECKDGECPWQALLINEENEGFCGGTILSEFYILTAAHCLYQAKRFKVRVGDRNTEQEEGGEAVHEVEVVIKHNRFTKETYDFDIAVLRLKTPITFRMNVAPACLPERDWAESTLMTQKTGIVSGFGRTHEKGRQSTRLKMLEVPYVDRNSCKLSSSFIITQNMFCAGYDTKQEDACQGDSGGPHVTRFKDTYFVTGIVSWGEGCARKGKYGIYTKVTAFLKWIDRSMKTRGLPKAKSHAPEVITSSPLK
Coagulation factor IX, sequence (P00740 47-191 limits assumed): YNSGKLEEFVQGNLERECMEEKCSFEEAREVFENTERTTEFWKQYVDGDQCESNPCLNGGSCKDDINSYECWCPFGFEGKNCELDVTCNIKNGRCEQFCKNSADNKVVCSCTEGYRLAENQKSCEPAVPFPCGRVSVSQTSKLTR
Coagulation factor IX, sequence (P00740 227-461 limits assumed): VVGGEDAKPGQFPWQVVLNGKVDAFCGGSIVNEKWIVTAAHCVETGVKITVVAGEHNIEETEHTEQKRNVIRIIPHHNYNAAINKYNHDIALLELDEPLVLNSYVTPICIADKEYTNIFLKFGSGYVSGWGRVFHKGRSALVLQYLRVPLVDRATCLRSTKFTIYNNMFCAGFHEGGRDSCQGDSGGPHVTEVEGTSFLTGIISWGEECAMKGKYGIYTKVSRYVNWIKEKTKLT
Plasma kallikrein, sequence (P03952 20-390 limits assumed): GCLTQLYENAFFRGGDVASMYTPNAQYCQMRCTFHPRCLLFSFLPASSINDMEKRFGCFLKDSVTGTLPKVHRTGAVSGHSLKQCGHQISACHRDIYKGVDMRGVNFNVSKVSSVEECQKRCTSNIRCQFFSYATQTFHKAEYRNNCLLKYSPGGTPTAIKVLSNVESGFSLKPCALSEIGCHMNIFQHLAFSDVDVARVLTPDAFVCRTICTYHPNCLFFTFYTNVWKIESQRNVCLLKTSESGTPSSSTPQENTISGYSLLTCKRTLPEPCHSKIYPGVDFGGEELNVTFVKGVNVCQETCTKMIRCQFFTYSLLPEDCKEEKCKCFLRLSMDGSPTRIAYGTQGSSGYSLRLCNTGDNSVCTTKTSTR
Plasma kallikrein, sequence (P03952 391-638 limits assumed): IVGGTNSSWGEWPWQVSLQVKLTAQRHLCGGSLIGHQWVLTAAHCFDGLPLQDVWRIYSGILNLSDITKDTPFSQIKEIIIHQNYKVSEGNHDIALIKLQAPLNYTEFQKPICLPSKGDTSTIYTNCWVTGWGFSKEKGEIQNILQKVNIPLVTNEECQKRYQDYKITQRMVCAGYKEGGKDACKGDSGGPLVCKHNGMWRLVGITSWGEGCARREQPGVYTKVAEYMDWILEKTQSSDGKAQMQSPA

Ki (Coagulation factor XI [5]) | Ki (Trypsin) | half-life [10] | Vd [11] | clearance [12] | SMILES | other results
0.31 nM |  |  |  |  | NC[C@H]1CC[C@H](C(=O)N[C@@H](Cc2ccccc2)c2nc(-c3ccc4c(N)n[nH]c4c3)c(Cl)[nH]2)CC1 | Ki [1]: > 22000 nM; bioavailability [2]: 3.6%; Ki (Plasminogen): 8400 nM; Vd [3]: 0.92 L/kg; clearance [4]: 11.2 mL/min/kg; Papp [6]: 0.03 ×10⁻⁶ cm/s; Ki (Kallikrein-1): 650 nM; half-life [7]: 1.88 h; Ki [8]: > 20800 nM
1.49 nM | 1040 nM |  |  |  | NCC12CCC(C(=O)N[C@@H](Cc3ccccc3)c3nc(-c4ccc5c(N)n[nH]c5c4)c(Cl)[nH]3)(CC1)CC2 | 
1.16 nM | 59 nM |  |  |  | NCc1ccc(C(=O)N[C@@H](Cc2ccccc2)c2nc(-c3ccc4c(N)n[nH]c4c3)c(Cl)[nH]2)cc1 | 
1.03 nM | 58 nM |  |  |  | NCc1ccc(C(=O)N[C@@H](Cc2ccccc2)c2nc(-c3ccc4c(N)n[nH]c4c3)c(Cl)[nH]2)c(F)c1 | 
19 nM | 380 nM | 0.14 h | 1 L/kg | 49.5 mL/min/kg | Nc1nccc2cc(C(=O)N[C@@H](Cc3ccccc3)c3nc(-c4ccc5c(N)n[nH]c5c4)c(Cl)[nH]3)ccc12 | bioavailability [9]: < 2%; Papp [6]: 3.8 ×10⁻⁶ cm/s
58 nM | 1400 nM |  |  |  | Nc1n[nH]c2cc(C(=O)N[C@@H](Cc3ccccc3)c3nc(-c4ccc5c(N)n[nH]c5c4)c(Cl)[nH]3)ccc12 | 
125 nM | > 5000 nM |  |  |  | Nc1n[nH]c2cc(-c3nc([C@H](Cc4ccccc4)NC(=O)c4ccc5c(N)noc5c4)[nH]c3Cl)ccc12 | 
2900 nM | > 5000 nM |  |  |  | Nc1n[nH]c2cc(-c3nc([C@H](Cc4ccccc4)NC(=O)[C@H]4CC[C@H](C(N)=O)CC4)[nH]c3Cl)ccc12 | 
68 nM | > 6000 nM | 1.5 h | 0.9 L/kg | 15.4 mL/min/kg | C[C@H]1CC[C@H](C(=O)N[C@@H](Cc2ccccc2)c2nc(-c3ccc4c(N)n[nH]c4c3)c(Cl)[nH]2)CC1 | bioavailability [9]: < 1%; Papp [6]: 0.46 ×10⁻⁶ cm/s
310 nM | > 5000 nM | 1.4 h | 1.5 L/kg | 12.5 mL/min/kg | NC(=O)c1ccc(C(=O)N[C@@H](Cc2ccccc2)c2nc(-c3ccc4c(N)n[nH]c4c3)c(Cl)[nH]2)cc1 | bioavailability [9]: 26%
390 nM | > 5000 nM |  |  |  | Cc1ccc(C(=O)N[C@@H](Cc2ccccc2)c2nc(-c3ccc4c(N)n[nH]c4c3)c(Cl)[nH]2)cc1 | 
200 nM | > 5000 nM | 1.8 h | 1.9 L/kg | 9 mL/min/kg | Cc1ccc(C(=O)N[C@@H](Cc2ccccc2)c2nc(-c3ccc4c(N)n[nH]c4c3)c(Cl)[nH]2)c(F)c1 | bioavailability [9]: 30%; Papp [6]: 54.7 ×10⁻⁶ cm/s
280 nM | > 6000 nM |  |  |  | COc1ccc(C(=O)N[C@@H](Cc2ccccc2)c2nc(-c3ccc4c(N)n[nH]c4c3)c(Cl)[nH]2)c(F)c1 | 
65 nM | > 6000 nM | 1.2 h | 1.3 L/kg | 15.2 mL/min/kg | COc1cc(F)c(C(=O)N[C@@H](Cc2ccccc2)c2nc(-c3ccc4c(N)n[nH]c4c3)c(Cl)[nH]2)c(F)c1 | bioavailability [9]: 49%; Papp [6]: 23.4 ×10⁻⁶ cm/s
530 nM | > 5000 nM |  |  |  | Nc1n[nH]c2cc(-c3nc([C@H](Cc4ccccc4)NC(=O)c4cc(Cl)ccc4F)[nH]c3Cl)ccc12 | 
54 nM |  |  |  |  | Nc1n[nH]c2cc(-c3nc([C@H](Cc4ccccc4)NC(=O)NCc4cccc(Cl)c4)[nH]c3Cl)ccc12 | 
31 nM |  |  |  |  | Nc1n[nH]c2cc(-c3nc([C@H](Cc4ccccc4)NC(=O)NCc4cc(Cl)ccc4F)[nH]c3Cl)ccc12 | 
53 nM |  |  |  |  | Cc1ccc(Cl)cc1CNC(=O)N[C@@H](Cc1ccccc1)c1nc(-c2ccc3c(N)n[nH]c3c2)c(Cl)[nH]1 | 

Ki (Coagulation factor XI [5]) | Ki (Trypsin) | half-life [10] | Vd [11] | clearance [12] | SMILES | other results
240 nM |  |  |  |  | Nc1n[nH]c2cc(-c3nc([C@H](Cc4ccccc4)NC(=O)NCc4cc(Cl)ccc4C(F)(F)F)[nH]c3Cl)ccc12 | 
75 nM |  |  |  |  | COc1ccc(Cl)cc1CNC(=O)N[C@@H](Cc1ccccc1)c1nc(-c2ccc3c(N)n[nH]c3c2)c(Cl)[nH]1 | 
57 nM |  |  |  |  | Nc1n[nH]c2cc(-c3nc([C@H](Cc4ccccc4)NC(=O)NCc4cccc(Cl)c4F)[nH]c3Cl)ccc12 | 
23 nM |  |  |  |  | Nc1n[nH]c2cc(-c3nc([C@H](Cc4ccccc4)NC(=O)NCc4c(F)ccc(Cl)c4F)[nH]c3Cl)ccc12 | 
5.8 nM |  |  |  |  | NCc1ccc(Cl)cc1CNC(=O)N[C@@H](Cc1ccccc1)c1nc(-c2ccc3c(N)n[nH]c3c2)c(Cl)[nH]1 | Activity (Plasma): 3.9 µM
1.5 nM |  | 2.1 h | 1.4 L/kg | 31.2 mL/min/kg | Nc1n[nH]c2cc(-c3nc([C@H](Cc4ccccc4)NC(=O)NCc4cc(Cl)ccc4-n4cnnn4)[nH]c3Cl)ccc12 | bioavailability [9]: 0%; Activity (Plasma): 1.8 µM; half-life [13]: < 0.0167 h
450 nM |  |  |  |  | Nc1n[nH]c2cc(-c3nc([C@H](Cc4ccccc4)NC(=O)NCc4cc(Cl)ccc4-n4cccn4)[nH]c3Cl)ccc12 | half-life [13]: < 0.0167 h
46 nM |  |  |  |  | Nc1n[nH]c2cc(-c3nc([C@H](Cc4ccccc4)NC(=O)NCc4cc(Cl)ccc4-n4cncn4)[nH]c3Cl)ccc12 | Activity (Plasma): 34 µM; half-life [13]: < 0.0167 h
3.4 nM |  | 2.8 h | 2.8 L/kg | 34.5 mL/min/kg | COC(=O)Nc1ccc(-c2nc([C@H](Cc3ccccc3)NC(=O)NCc3cc(Cl)ccc3-n3cnnn3)[nH]c2Cl)cc1 | Activity (Plasma): 5.6 µM; half-life [13]: < 0.0167 h
1.9 nM |  | 2.6 h | 4.4 L/kg | 38.3 mL/min/kg | COC(=O)Nc1ccc(-c2nc([C@H](Cc3ccccc3)NC(=O)CCc3cc(Cl)ccc3-n3cnnn3)[nH]c2Cl)cc1 | Activity (Plasma): 5.2 µM
2.7 nM |  | 3.1 h | 1.6 L/kg | 9 mL/min/kg | COC(=O)Nc1ccc(-c2nc([C@H](Cc3ccccc3)NC(=O)/C=C/c3cc(Cl)ccc3-n3cnnn3)[nH]c2Cl)cc1 | bioavailability [9]: 3%; Activity (Plasma): 5.3 µM; half-life [13]: 0.55 h
6.7 nM | > 6200 nM | 2.4 h | 3.4 L/kg |  | COC(=O)Nc1ccc(-c2c[nH]c([C@H](Cc3ccccc3)NC(=O)/C=C/c3cc(Cl)ccc3-n3cnnn3)n2)cc1 | bioavailability [9]: 10.4%; Ki (Coagulation factor X): 1500 nM; Ki [1]: 17000 nM; Ki (Coagulation factor VII): > 13000 nM; Ki (Plasminogen): > 41000 nM; Ki (Prothrombin): > 15000 nM; Ki (Coagulation factor IX): > 60000 nM; Ki (Kallikrein-1): > 30000 nM; Ki (Plasma kallikrein): 240 nM; Activity (Plasma): 8.6 µM; Ki [8]: 1300 nM
 |  |  |  |  | Nc1n[nH]c2cc(-c3c[nH]c([C@H](Cc4ccccc4)NC(=O)/C=C/c4cc(Cl)ccc4-n4cnnn4)n3)ccc12 | Ki (Coagulation factor XI [14]): 5 nM; Activity (Plasma): 4 µM
1.2 nM | > 6200 nM | 2.2 h | 0.8 L/kg | 16 mL/min/kg | Nc1n[nH]c2cc(-c3nc([C@H](Cc4ccccc4)NC(=O)/C=C/c4cc(Cl)ccc4-n4cnnn4)[nH]c3Cl)ccc12 | bioavailability [9]: 0%; Ki (Coagulation factor X): > 1000 nM; Ki [1]: 19000 nM; Ki (Coagulation factor VII): > 13000 nM; Ki (Plasminogen): > 24000 nM; Ki (Prothrombin): > 13000 nM; Ki (Coagulation factor IX): > 35000 nM; Ki (Kallikrein-1): 1200 nM; Ki (Plasma kallikrein): 41 nM; Activity (Plasma): 3 µM; Ki [8]: 660 nM
2.6 nM | 2800 nM | 2.3 h | 2.8 L/kg | 34.8 mL/min/kg | Nc1nccc2c1CCC(C(=O)N[C@@H](Cc1ccccc1)c1nc(-c3ccc4c(N)n[nH]c4c3)c(Cl)[nH]1)C2 (single isomer, unassigned; diastereomer A) | bioavailability [9]: < 2%; Papp [6]: 0.15 ×10⁻⁶ cm/s
2.5 nM | 360 nM |  |  |  | Nc1nccc2c1CCC(C(=O)N[C@@H](Cc1ccccc1)c1nc(-c3ccc4c(N)n[nH]c4c3)c(Cl)[nH]1)C2 (single isomer, unassigned; diastereomer B) | 
2.15 nM | 1430 nM |  |  |  | Nc1nccc2c1CCC(C(=O)N[C@@H](Cc1ccccc1)c1nc(-c3ccc4c(N)n[nH]c4c3)c(Cl)[nH]1)C2 (stereo in doubt; 6) | 
